# Measured values reported in patent US9233981B1, “Substituted phenyl hexahydropyrano[3,4-d][1,3]thiazin-2-amine compounds” (Pfizer Inc., priority 2013, dated 2016).
# pIC50: −log10 of the molar value.
# Assays:
# [1] = tested on: sAPPβ levels in H4 human neuroglioma cells over-expressing the wild-type human APP695; test: Whole Cell Assay (In Vitro sAPPβ Assay), TMB-ELISA; assay type: cell-based; settings: 18 hours, geometric mean of 2-3 determinations, Examples 32-34 (footnote b) single determination
# Description: Whole Cell Assay (In Vitro sAPPpβ Assay):
# H4 human neuroglioma cells over-expressing the wild-type human APP695 are treated for 18 hours with compound in a final concentration 1% DMSO. sAPPβ levels are measured using TMB-ELISA with capture APP N-terminal antibody (Affinity BioReagents, OMA1-03132), wild-type sAPPβ specific reporter p192 (Elan), and tertiary anti rabbit-HRP (GE Healthcare).
# BACE1 enzyme = BACE1 enzyme (Homo sapiens (Human), UniProt P56817); test: BACE1 Cell-Free Assay (fluorescence polarization, cleavage of synthetic APP substrate); assay type: biochemical; settings: geometric mean of 2-3 determinations; Examples 32-34 (footnote b) single determination
# Sequence of BACE1 enzyme (P56817 46-457): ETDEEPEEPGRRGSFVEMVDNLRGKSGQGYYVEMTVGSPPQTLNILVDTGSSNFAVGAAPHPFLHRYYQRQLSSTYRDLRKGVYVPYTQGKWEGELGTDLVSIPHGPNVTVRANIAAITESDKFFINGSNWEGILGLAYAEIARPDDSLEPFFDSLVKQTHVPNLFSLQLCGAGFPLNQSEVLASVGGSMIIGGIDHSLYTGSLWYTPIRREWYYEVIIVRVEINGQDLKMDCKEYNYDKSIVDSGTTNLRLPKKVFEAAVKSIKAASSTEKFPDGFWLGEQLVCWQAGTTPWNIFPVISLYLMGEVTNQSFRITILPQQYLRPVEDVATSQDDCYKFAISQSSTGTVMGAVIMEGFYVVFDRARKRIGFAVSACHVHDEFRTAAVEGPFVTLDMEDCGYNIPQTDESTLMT
# Text: Beta-secretase (BACE) is one of the enzymes involved in the generation of the amyloid beta peptide found in the amyloid plaques of Alzheimer's Disease patients. This assay measures the inhibition of the beta-secretase enzyme as it cleaves a non-native peptide.
# A synthetic APP substrate that can be cleaved by beta-secretase having N-terminal biotin and made fluorescent by the covalent attachment of Oregon Green at the Cys residue is used to assay beta-secretase activity in the presence or absence of the inhibitory compounds. The substrate is Biotin-GLTNIKTEEISEISY^EVEFR-C[Oregon Green]KK-OH. The BACE1 enzyme is affinity purified material from conditioned media of CHO-K1 cells that have been transfected with a soluble BACE construct (BACE1deltaTM96His). Compounds are incubated in a log dose response curve from a top concentration of 100 μM with BACE1 enzyme and the biotinylated fluorescent peptide in 384-well black plates (Thermo Scientific #4318). BACE1 is at a final concentration of 0.1 nM with a final concentration of peptide substrate of 150 nM in a reaction volume of 30 μL assay buffer [100 mM sodium acetate, pH 4.5 (brought to pH with acetic acid), and 0.001% Tween-20]. Plates are covered and incubated for 3 hours at 37° C. The reaction is stopped with the addition of 30 μL of 1.5 μM Streptavidin (Pierce, #21125). After a 10 minute incubation at room temperature, plates are read on a PerkinElmer EnVision for fluorescence polarization (Ex485 nm/Em530 nm). The activity of the beta-secretase enzyme is detected by changes in the fluorescence polarization that occur when the substrate is cleaved by the enzyme.
SMILES,pIC50 [1],pIC50 (BACE1 enzyme)
"NC1=N[C@@]2(c3ccc(F)cc3F)CO[C@@H](c3ccc(F)cc3)C[C@H]2CS1 [Example 1, (4aR,6R,8aS)-8a-(2,4-difluorophenyl)-6-(4-fluorophenyl)-4,4a,5,6,8,8a-hexahydropyrano[3,4-d][1,3]thiazin-2-amine]",11.22,7.85
"Cc1ccc([C@H]2C[C@H]3CSC(N)=N[C@@]3(c3ccc(F)cc3F)CO2)cc1F [Example 9, (4aR,6R,8aS)-8a-(2,4-difluorophenyl)-6-(3-fluoro-4-methylphenyl)-4,4a,5,6,8,8a-hexahydropyrano[3,4-d][1,3]thiazin-2-amine]",10.92,7.89
"Cc1ccc(F)c([C@H]2C[C@H]3CSC(N)=N[C@@]3(c3ccc(F)cc3F)CO2)c1 [Example 11, (4aR,6R,8aS)-8a-(2,4-difluorophenyl)-6-(2-fluoro-5-methylphenyl)-4,4a,5,6,8,8a-hexahydropyrano[3,4-d][1,3]thiazin-2-amine]",10.77,7.68
"NC1=N[C@@]2(c3ccc(F)cc3F)CO[C@@H](c3ccc4c(c3)OCO4)C[C@H]2CS1 [Example 27, (4aR,6R,8aS)-6-(1,3-benzodioxol-5-yl)-8a-(2,4-difluorophenyl)-4,4a, 5,6,8,8a-hexahydropyrano[3,4-d][1,3]thiazin-2-amine]",11.10,7.72

# Now from value to compound:
pIC50 [1],pIC50 (BACE1 enzyme),SMILES
11.00,7.66,"COCc1ccc([C@H]2C[C@H]3CSC(N)=N[C@@]3(c3ccc(F)cc3F)CO2)cc1 [Example 25, (4aR,6R,8aS)-8a-(2,4-difluorophenyl)-6-[4-(methoxymethyl)phenyl]-4,4a,5,6,8,8a-hexahydropyrano[3,4-d][1,3]thiazin-2-amine]"
11.22,7.96,"C[C@H]1SC(N)=N[C@@]2(c3ccc(F)cc3F)CO[C@@H](c3ccc(C#N)cc3)C[C@@H]12 [Example 33, (4R,4aR,6R,8aS)-8a-(2,4-Difluorophenyl)-6-(4-cyanophenyl)-4-methyl-4,4a,5,6,8,8a-hexahydropyrano[3,4-d][1,3]thiazin-2-amine]"
10.02,6.67,"COc1cc([C@H]2C[C@H]3CSC(N)=N[C@@]3(c3ccc(F)cc3F)CO2)ccc1F [Example 18, (4aR,6R,8aS)-8a-(2,4-difluorophenyl)-6-(4-fluoro-3-methoxyphenyl)-4,4a,5,6,8,8a-hexahydropyrano[3,4-d][1,3]thiazin-2-amine]"
10.42,7.80,"Cc1cc(F)cc([C@H]2C[C@H]3CSC(N)=N[C@@]3(c3ccc(F)cc3F)CO2)c1 [Example 10, (4aR,6R,8aS)-8a-(2,4-difluorophenyl)-6-(3-fluoro-5-methylphenyl)-4,4a,5,6,8,8a-hexahydropyrano[3,4-d][1,3]thiazin-2-amine]"
11.30,8.22,"NC1=N[C@@]2(c3ccc(F)cc3F)CO[C@@H](c3ccc4c(c3)CCO4)C[C@H]2CS1 [Example 26, (4aR,6R,8aS)-8a-(2,4-difluorophenyl)-6-(2,3-dihydro-1-benzofuran-5-yl)-4,4a,5,6,8,8a-hexahydropyrano[3,4-d][1,3]thiazin-2-amine]"
9.16,5.66,"COc1ccccc1[C@H]1C[C@H]2CSC(N)=N[C@@]2(c2ccc(F)cc2F)CO1 [Example 17, (4aR,6R,8aS)-8a-(2,4-difluorophenyl)-6-(2-methoxyphenyl)-4,4a,5,6,8,8a-hexahydropyrano[3,4-d][1,3]thiazin-2-amine]"
